Test results reported in PMC12379159 (Journal of Natural Products, 2025).

Tests used:
[1] = test system: interleukin 23 receptor (Il23r); test: RT-qPCR of Il23r in EL-4-mRORγt cells; assay type: cell-based, murine; settings: indicated concentrations, 20–24 h, then 4.5-h PMA and ionomycin
Protocol: For RT-qPCR assays, 5 × 10^5 EL-4-mRORγt cells were seeded in 500 μL complete DMEM per well of a 24-well plate and treated with the vehicle control, the positive control, or the compounds of interest. After incubation for 20–24 h, cells were stimulated with Cell Activation Cocktail (PMA: 40.5 μM, ionomycin: 669.3 μM; 500X) for 4.5 h. Afterward, total RNA was isolated using the innuPREP RNA Mini Kit 2.0 according to the manufacturer’s instructions. According to the manufacturer’s instructions, 1 μg RNA was reverse-transcribed into cDNA using the High-Capacity cDNA Reverse Transcription Kit. RT-qPCR was performed using the Luna Universal qPCR Master Mix on a LightCycler 480 (Roche Diagnostics, Rotkreuz, Switzerland) according to the manufacturer’s instructions. […] Livak’s 2−ΔΔCt method was employed to determine the expression levels of RORγ target genes. This involved normalizing the target gene expression to the expression levels of the control gene 18s, followed by further normalization to the vehicle control.

hRORγ LBD = biological target: T1, hRORγ LBD (Homo sapiens, UniProt P51449); test: Thermal stability by nano differential scanning fluorimetry (nanoDSF); assay type: binding; settings: RORγ-LBD with 4 equiv ligand vs without ligand; mean ± SD
T1 construct: His tag (N, cleaved yes); made in house; host or cells: Escherichia coli BL21 DE3
T1 sequence (P51449 264-518): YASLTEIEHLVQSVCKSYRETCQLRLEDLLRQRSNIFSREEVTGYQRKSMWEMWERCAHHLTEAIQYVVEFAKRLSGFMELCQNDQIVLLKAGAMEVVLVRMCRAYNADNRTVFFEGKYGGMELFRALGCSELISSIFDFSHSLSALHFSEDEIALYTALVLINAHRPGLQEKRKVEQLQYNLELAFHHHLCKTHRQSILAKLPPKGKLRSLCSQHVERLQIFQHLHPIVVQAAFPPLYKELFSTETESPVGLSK
Protocol: Soluble proteins were purified on Ni Hitrap FFcrude column (Cytiva), followed by His tag removal by thrombin (MP Biomedicals) cleavage and by size exclusion chromatography on HiLoad Superdex200 column (Cytiva) equilibrated in 20 mM Tris-HCl pH 7.5, 150 mM NaCl, 1 mM TCEP (Hampton Research). Purity and homogeneity of the hRORγ LBD were assessed by SDS-PAGE. The purified protein was concentrated to 0.5–1.0 mg/mL with an Amicon Ultra 10 kDa MWCO. The aliquots of purified LBD were incubated with 4 equiv ligands or vehicle for thermal stability experiments.
Fluorescence-based thermal experiments were performed using a Prometheus NT.48 (NanoTemper Technologies, Germany) with grade standard capillaries containing 10 μL of RORγLBD with different ligands. […] NanoTemper PR. Stability Analysis v1.0.2 was used to fit the data and determine the melting temperatures Tm.

EL-4-mRORγt cells = test: Resazurin conversion assay in EL-4-mRORγt cells; assay type: cell-based, murine; settings: 5 μM, 20-24 h
Protocol: (§1) To check the metabolic activity of cells correlating with cell viability, cells were treated with the vehicle control (0.1% DMSO), digitonin as the positive control for cytotoxicity at 20 μg/mL (HEK293 cells) or 50 μg/mL (EL-4-mRORγt cells), or the compounds of interest at 5 μM for 18 h (HEK293 cells) or 20–24 h (EL-4-mRORγt cells). The next day, the medium was carefully removed and replaced with stripped DMEM without phenol red, containing 10 μg/mL resazurin sodium salt. Cells were incubated for 5 h before RFU values were measured at λem = 590 nm using a spectrophotometer. Cell viability was calculated as follows: Cell viability(%)=100×RFU value after compound treatment/RFU value after vehicle control treatment Cytotoxicity was defined as cell viability under 70% according to the ISO 10993–5 guidelines. Cell viability <90% is explicitly stated in the respective figure.

Gal4-RORγ H479L = biological target: T2, Gal4-RORγ H479L (Homo sapiens, UniProt P51449, H479L); test: Gal4-RORγ H479L mutant luciferase assay; settings: 5 μM
T2 sequence (P51449 269-508 H479L limits assumed): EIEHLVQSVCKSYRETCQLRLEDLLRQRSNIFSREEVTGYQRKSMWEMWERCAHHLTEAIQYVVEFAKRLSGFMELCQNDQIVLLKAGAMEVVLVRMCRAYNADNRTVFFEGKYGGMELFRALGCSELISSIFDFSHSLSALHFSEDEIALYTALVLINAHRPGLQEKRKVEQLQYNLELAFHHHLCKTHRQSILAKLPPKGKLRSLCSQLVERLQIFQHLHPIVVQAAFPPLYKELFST
Protocol: For luciferase assays, 8 × 10^6 HEK293 cells were seeded on 150 mm cell culture dishes and incubated for 5 h. Afterward, cells were transfected with the calcium phosphate coprecipitation method using 5 μg of the nuclear receptor (Gal4-hRORγ or full-length human RORγ), 5 μg of a luciferase reporter (pTK-MH100 × 4-LUC for Gal4-hRORγ experiments or RORE-LUC for full-length human RORγ experiments) and 3 μg eGFP-N1 (for assessing transfection efficiency) plasmid DNA and incubated overnight. […] The medium was changed the following day, and cells were further incubated for another four to 5 h before trypsin/EDTA was added to detach them from the dishes. […] RLUs were normalized to relative fluorescence units (RFU) to account for differences in cell number and transfection efficiency and then normalized to the vehicle control. Results are expressed as fold activation relative to the vehicle control.
Gal4-hRORγ H323A and H479L mutants were generated using the QuikChange Lightning Site-Directed Mutagenesis Kit according to the manufacturer’s instructions. Briefly, 10 ng template DNA (Gal4-hRORγ) was PCR-amplified with the respective mutagenic forward and reverse primers listed in Table S3, which were designed using the QuikChange Primer Design tool (https://www.agilent.com/store/primerDesignProgram.jsp). […] Two μL of the PCR product were then transformed into XL1-Blue competent E. coli according to a protocol provided by NEB. […] After centrifuging the main culture at 5691g for 10 min, the supernatant was decanted, and plasmid preparation was performed using the PureLink HiPure Plasmid Midiprep Kit according to the manufacturer’s instructions. DNA yields and purities were checked using a NanoDrop 2000c (Thermo Fisher Scientific, Waltham, MA, USA).

HEK293 cells = test: Resazurin conversion assay in HEK293 cells; assay type: cell-based, human; settings: 5 μM, 18 h
Protocol: as §1

C=C(C)[C@@H]1CC[C@]2(C(=O)O)CC[C@]3(C)[C@H](CC[C@@H]4[C@@]5(C)C/C(=C/c6ccco6)C(=O)C(C)(C)[C@@H]5CC[C@]43C)[C@@H]12 [Compound 15, (2Z)-2-(2-furanylmethylene)-3-oxolup-20(29)-en-28-oic acid]
Il23r expression [1]: concentration-dependent down-regulation
ΔTm measured with nano differential scanning fluorimetry (hRORγ LBD): 9.6 ± 0.4 °C
Cytotoxic effects, resazurin conversion assay (EL-4-mRORγt cells): no cytotoxic effects
Activity on Gal4-RORγ H479L vs WT (Gal4-RORγ H479L): loss of activity
Cytotoxic effects, resazurin conversion assay (HEK293 cells): no cytotoxic effects
